Consider two molecules from patent US20240400698A1, “ANTI-CHEMOKIN LIKE RECEPTOR 1 ANTIBODIES AND THEIR THERAPEUTIC APPLICATIONS” (OSE IMMUNOTHERAPEUTICS, priority 2018, published 2024).

Experiment [1] has as its system male C57BI/6 mice, Aldara-induced psoriasis. Description: Imiquimod (Aldara)-induced psoriasis-like skin inflammation. Type of experiment: in vivo. To be noted: 1 μg per mouse i.p. daily, vs control molecule. As to the method:
FIG. 6. Effect of Resolvin E1 on an autoimmune disease such as mice psoriasis model. Aldara treated mice for 6 consecutive days were injected intra-peritoneally with: RvE1 (1 μg) (•) and PBS daily, and isotype control antibody (10 μg) (x) at day 0, 2 and 4. A. Ear thicknesses and B. skin thicknesses were measured daily until the recovery.
Aldara@ cream which is known to induce psoriasis in mice was used on male C57BI/6 mice (8-10-week old). Mice received a daily topical dose of Aldara on the shaved back and the left ear for 6 consecutive days. Treatments were injected intra-peritoneally: RvE1 (1 μg per mouse) and PBS daily. Ear (FIG. 6A) and back (FIG. 6B) thicknesses were measured daily until the recovery.

Experiment [2] deals with mice, peritonitis induced by Zymosan A. Put plainly: Zymosan A peritonitis model (sepsis). Type of experiment: in vivo. To be noted: preventive injection, vs isotype control. As to the method: FIG. 7. […] Preventive injection of anti-CMKLR1 was performed before Zymosan A injection (1 mg per mouse in 1 mL): RvE1 (1 μg per mouse) (•), 2G1 antibody (10 μg per mouse) ( ) or isotype control antibody (x). A. PMN numbered during the first 50 hours after Zymosan A injection. B. Macrophages numbered during the first 50 hours after Zymosan A injection. C. Resolution index.
Common peritonitis is induced by intraperitoneal injection of Zymosan A® (1 mg per mouse in 1 mL). Preventive injection of anti-CMKLR1 was performed 5 minutes before Zymosan A injection: RvE1 (1 μg per mouse), 2G1 antibody (10 μg per mouse). Murine peritoneal polymorphonuclear neutrophil (PMN) and macrophages were collected at 2-4-8-16-24 and 48 h after Zymosan A injection and numbered by flow cytometry analysis to determinate the resolution index (Bannenberg et al., 2005).

Experiment [3] has as its system Mice dendritic cells. Description: Maturation and differentiation of mice bone marrow derived dendritic cells, activation markers and viability by FACS. It is filed as cell-based. As to the method: FIG. 1. Effect of the anti-CMKLR1 variants 1G1, 2G1, 3G1 and 4G1 chimeric antibodies on the DCs maturation and differentiation. Mice dendritic cells were incubated during maturation phase (24 h or 48 h) followed by a differentiation phase with excipient or RvE1 or anti-CMKLR1 antibodies variants (mutations on positions 1 and 2 of SEQ ID No. 8, corresponding to the VH-CDR3: 1G1 (LL), 2G1 (LI), 3G1 (IL) or 4G1 (II) or isotype controls (hIgG1 or mIgG)). Cells were then stained for FACS analysis with cell marker antibodies: A. CD80-PE; B. CD86-FITC; C. CD103-PerCPCy5.5; D. I/Ab-APC. Mean of Fluorescence was determined in each condition. E and F represent the viability of the cells measured by FACS using LIVE/DEAD® kit from Life Technologies in each condition after 24 or 48 hours of maturation respectively.
FIG. 17. Study of the myeloid cell activation markers after CMKLR1 pathway activation. Dendritic cells incubated in excipient, RvE1, 2G1 or isotype control (hIgG1) were then stained for FACS analysis with marker antibodies: A. CD80-PE. B. CD86-FITC. C. CD103-PerCPCy5.5. D. CD40-PeCy7. E. I/Ab-APC. Mean of Fluorescence was determined in each condition.
Bone marrow cells were harvested and cultured in RPMI medium supplemented with 10% FBS, glutamine and antibiotics and the dendritic cell differentiation was induced by GM-CSF at 20 ng/ml for 7 days. Then, immature dendritic cells (iDC) were collected and cultured for 24 hours with LPS (100 ng/ml) to induce the maturation from iDC to mDC. Treatments were added during differentiation and maturation at 2 μg/ml.
Dendritic cells were resuspended in PBS-FBS-EDTA and incubated with live and dead (LIVE/DEAD® Fixable Dead Cell Stains Yellow-Life Technologies) for 30 minutes on ice. Staining of CD11c-BV711, CD11b-APCCy7, I/Ab-APC, CD103-PerCPCy5.5, CCR7-V450, CD40-PeCy7, CD80-PE, CD86-FITC (all provided by BD Pharmingen) were performed.
Background: In flow cytometry, cells or beads pass a laser one at a time.

In experiment [4] the test system is mice M1 or M2 macrophages. Put plainly: Cytokine secretion by mice M1 or M2 macrophages (ELISA), FIG. 15. It is filed as cell-based. The conditions noted are these: FIG. 15; IL10, CCL17, IL12p40. On the procedure: FIG. 15. Study of the inflammatory cytokine secretion by human macrophages during CMKLR1 activation. After differentiation of human macrophages M1 or M2, cells were incubated in presence of medium, isotype control, anti-CMKLR1 antibodies (H6 and BZ194), C15 peptides, 2G1 anti-CMKLR1 antibody or RvE1. Secretion of IL10, CCL17 and IL12p40 were assessed by ELISA. Cytokines secretion is measured in the supernatant by using an ELISA kit from BD. Supernatant were diluted at 1/10 for IL10 cytokines, 1/50 for CCL17 cytokines and 1/100 for IL12p40 cytokines. A. IL10 cytokine secretion by M2 cells. B. CCL17 cytokine secretion by M2 cells. C. represents IL 12 cytokine secretion by M1 cells.
Bone marrow cells were harvested and cultured in the RPMI medium supplemented with 10% FBS, glutamine and antibiotics containing macrophages colony-stimulating factor (M-CSF) at 100 ng/ml for 5 days inducing the macrophages differentiation. The macrophages were harvested and cultured for 2 days with either IFNg (20 ng/ml) and LPS (100 ng/ml) inducing the M1 polarization or with IL-4 (20 ng/ml) inducing the M2 polarization. Treatments were added during macrophage polarization at 2 μg/ml.
After differentiation of mice M1 or M2 as explain above, cells were incubated in presence of medium, isotype control, anti-CMKLR1 antibodies: clones H6 and BZ194, C15 peptides, 2G1 the anti-CMKLR1 antibody of interest or RvE1 were used. Then the secretion of IL10, CCL17 and IL12p40 was assessed by ELISA. Cytokines secretion was measured in the supernatant using an ELISA kit from BD. Supernatants were diluted at 1/10 for IL10 cytokines, 1/50 for CCL17 cytokines and 1/100 for IL12p40 cytokines.
Cytokines secretion was detected by ELISA according to the BD manufacturer instructions. Briefly, supernatants were diluted in the appropriate buffer and incubated for 2 hours after overnight coating with capture antibody and saturation. […] TMB supplied by BD Bioscience was used as substrate and colorimetric reaction was read with TECAN.
Background: An ELISA detects its analyte on a solid surface through an enzyme-linked reagent.

Experiment [5] has as its system C57BI/6 male mice, colitis induced by TNBS. Description: Acute inflammatory colitis model induced by TNBS. Type of experiment: in vivo. The conditions noted are these: FIG. 3, 2G1 10 μg, RvE1 1 μg per mouse i.p. On the procedure:
FIG. 3. […] Mice received 200 μL of the haptenating agent TNBS at 5% in 50% ethanol on day 0 and then were injected with isotype control hIgG1 (10 μg per mouse) (x), RvE1 (1 μg per mouse) daily (•), or 2G1 antibody (10 μg per mouse) three times ( ) for 5 days, or non-treated (wild type animals) (▾). Mice were sacrificed colon length was measured in each condition.
Colitis was induced in 8-10 weeks-old-C57BI/6 male mice by intrarectal injection of 200 μL of the haptenating agent TNBS at 5% in 50% ethanol on day 0. Treatments were injected intra-peritoneally; RvE1 (1 μg per mouse) daily for three days, or 2G1 antibody (10 μg per mouse) twice for 3 days. Colitis follow-up consisting of body weight and stool score (0: normal stool; 4: blood in stool) parameters were performed daily (data not represented). When mice are euthanized, colon length representing the pathology severity was measured.

For `CC[C@@H](O)/C=C/C=C\C[C@@H](O)/C=C/C=C/C=C\[C@@H](O)CCCC(=O)O` [RvE1, Resolvin E1, reference compound], the “thickness of the ears” value in experiment [1] (FIG. 6A) is reported as “lower thickness”. Moreover, the “thickness of the skin (back)” value in experiment [1] (FIG. 6B) is on record as “lower thickness”. Moreover, the PMNs number result in experiment [2] (FIG. 7A) is listed as “slightly less”. Also, the macrophages number result in experiment [2] (FIG. 7B) is on record as “slightly less”. Besides, the resolution index result in experiment [2] (FIG. 7C) is “better resolution index”. In addition, in experiment [3] (FIG. 17, FACS, compared to the excipient or isotype control), the “expression of CD80, CD86, CD103, CD40 and IAb (DC activation markers)” value is “strong decrease”. In addition, the “inflammatory cytokines secreted by M1 or M2 macrophages, result compared with that of 2G1” value in experiment [4] is listed as “different”. The colon length result in experiment [5] is “the same as normal animal (wt)”.

B1: 1G1: anti-CMKLR1 chimeric antibody variant, LL on positions 1 and 2 of VH-CDR3 (SEQ ID No. 8) (antibody, V domains shown)
VH: EVQLVASGGGLVQPGGSLKLSCAASGFTFSSYGMSWVRQTPDRRLELVATINRYGGSTYYPDSVKGRFTISRDNAKNTLYLQMSSLKSEDTAMYYCPRLLYYGNEGDSWGQGTTLTVSS
VL: QIVLTQSPAIMSASPGEKVTMTCSASSSVSFMHWYQQKSGTSPKRWIYDTTKLTSGVPARFSGSGSGTFYSLTISSMEAEDAATYYCQQWNSKPPLTFGPGTKLELKR
In the case of B1, the “DCs activation and/or maturation towards a pro-inflammatory pathway” value in experiment [3] (FIG. 1, mice dendritic cells, maturation 24 h or 48 h) was “inhibit DCs activation and/or maturation in a stronger manner than other synthetized antibodies (3G1 and 4G1)”. Further, the viability of cells entry in experiment [3] (FIGS. 1E and 1F, LIVE/DEAD kit, after 24 or 48 hours of maturation, compared with other antibodies, C7 or Resolvin E1) is “enhanced”.
